Experimental data: patent US20230122911A1, “FORMULATIONS OF ENZALUTAMIDE” (Astellas Pharma Inc., priority 2012, published 2023)

Legend:
[1] = Membrane-permeation (MP) dissolution test; type: in vitro ADME
Protocol: The membrane permeability test described in the Examples below is carried out as follows. A drug-permeable membrane is placed between feed and permeate reservoirs. A sufficient quantity of test composition is added to a feed test medium and placed in the feed reservoir, while a water immiscible organic solution, such as a 60/40 mixture of decanol/decane, is placed in the permeate reservoir. Samples are removed from the permeate reservoir and analyzed for the concentration of drug as a function of time. […] Further details of this membrane permeation test are disclosed in U.S. Pat. No 7,611,630 B2.
The MP-dissolution test, whose details are described above, measures a capability of low solubility drug formulations which is not measured in the microcentrifuge dissolution test utilized in Examples 4 and 7. This test mimics an aspect of the in vivo situation in the GI tract. In the in vivo situation, it is generally accepted that free drug in solution (i.e. individual drug molecules dissolved in the GI medium without association with formulation components) is the species which is absorbed across the gastrointestinal wall into the bloodstream. As free drug is absorbed, the formulation must be capable of supplying more free drug for absorption. The membrane permeation test measures the amount of drug which crosses a polymeric membrane (as a model of the GI wall) over time, and thus reflects the ability of the formulation to resupply free drug in solution to be further passively transported across the polymeric membrane. In Table 8.1 below, Maximum Flux is the maximum observed rate of permeation across the polymeric membrane, based on the slope of the absorption curve over any period within the 240 minute duration of the experiment, normalized for membrane area. Total drug recovery is the % of the initial drug dose which has crossed the membrane when the test ended at 240 minutes.

[2] = Crystallinity by PXRD (and DSC); type: physicochemical; conditions: after spray-drying
[3] = Relative bioavailability of amorphous drug and HME dispersions in rats (Example 13); type: in vivo, rat; conditions: oral gavage 20 mg/kg; for Mean AUC0-inf: rat plasma; for Bioavailability (Mean AUC0-inf/IV Mean AUC0-inf): rat
Protocol: Six groups of jugular vein-cannulated CD® rats (n=6 per group) were dosed six enzalutamide formulations by oral gavage, at a dose of 20 mg/kg, in a volume of 2 ml/kg. with the exception of one group which was dosed intravenously via tail vein. Blood samples were obtained at 1, 3, 6, 12, 24, 36, 48, 60, and 72 hr post-dose.
The analytes, enzalutamide, MDPC0002, and MDPC0001 and internal standards (IS), N-^13CD3-enzalutamide, MDPC0002-^13CD3. and MDPC0001-^13CD3 were extracted from […] of rat plasma by a liquid-liquid extraction procedure. Internal standard working solution (25.0 µL) was added to all wells except the matrix blank. A 25.0 µL-volume of acetonitrile was added all matrix blank samples. After adding 200 µL of 5% sodium bicarbonate in water buffer solution, the plate was vortexed for approximately 10 seconds. A Tomtec Quadra 96-well pipettor was used to add 1.050 mL of methyl tert-butyl ether (MTBE) to all wells, mixed, and approximately 1.00 mL of the organic layer was transferred to a clean 96-well plate. The samples were evaporated under heated nitrogen and reconstituted with 250 µL of 0.1% formic acid in methanol/water (40:60, v/v). The plate was covered and gently vortexed for approximately 10 seconds. The extracts were chromatographed under reverse phase conditions on an ACE 5 C18 HPLC 5 µm, 2.1 x 30 mm column. The compounds were detected and quantified by tandem mass spectrometry in positive ion mode on an MDS Sciex API 3000 equipped with a Turbo IONSPRAY® probe. Calibration curves were obtained by performing a linear regression (weighted ⅟x^2) of the data from the calibration standards.
Plasma enzalutamide concentration vs. time curves were prepared, and values for the following parameters were determined. Cmax is the highest enzalutamide concentration observed for each rat. Tmax is the time that Cmax is first achieved. AUC0-72 is the area under the plasma enzalutamide concentration vs. time plot out to 72 hr post-dosing.

[4] = Glass transition temperature (Tg) by modulated DSC; type: physicochemical
Protocol: Below Tg, an amorphous material is said to be in a “glassy” state in which molecular mobility is severely restricted. […] Glass transition temperatures Tg were determined for amorphous enzalutamide, and for spray-dried dispersions (SDDs) of enzalutamide with HPMCAS-M or PVP-VA64, at <5% and 75% relative humidity (RH) Tgs were determined by modulated differential scanning calorimetry (mDSC), utilizing the following protocol. Samples (about 5 mg) were equilibrated at the desired RH overnight in an environmental chamber at ambient temperature. The samples were then loaded into pans and sealed inside the environmental chamber. The samples were analyzed on a Q1000 mDSC (TA Instruments, New Castle, Delaware). Samples were typically scanned over the temperature range of -40° C. to 180° C., at a scan rate of 2.5° C./min, and a modulation rate of ±1.5° C./min. […] The Tg was calculated based on half height.
HME dispersions were produced using dry-powder blends of enzalutamide and HPMCAS-M or PVP VA at three different drug loadings: 25%A, 40%A, and 60%A. Using a volumetric powder feeder, the blends were fed at a controlled rate to a 7.5 \-mm MP&R™ Model ME7.5 Twin-Screw Extruder (MP&R, Hackensack, NJ). […] Table 11.1 presents the extrusion temperature, the crystallinity of the dispersion (amorphous is desired), and the glass transition temperature (Tg) measured by DSC.

[5] = Microcentrifuge dissolution before and after suspension for 2 hr in aqueous 0.5% methylcellulose; type: physicochemical
Protocol: Drugs and drug formulations are sometimes dosed as aqueous suspensions, particularly for pediatric patients. The ability of various enzalutamide SDDs to retain their ability to maintain drug supersaturation in vitro was assessed by using the microcentrifuge dissolution test to measure drug dissolution after suspension in 0.5% methylcellulose in water for 2 hours. Methylcellulose is a standard viscosifying suspending agent which is used to maintain drug particles in suspension in oral suspension dosage forms. The table below presents in vitro dissolution performance before and after suspension in 0.5% methylcellulose.

[6] = listed as Spray-dried amorphous drug
[7] = 0 hr, before suspension in 0.5% methylcellulose
[8] = after suspension for 2 hr in aqueous 0.5% methylcellulose

Structure (SMILES) | Maximum Flux ([1]; Table 8.1, within 240 minute duration, normalized for membrane area, listed as Amorphous (spray-dried) enzalutamide) [µg/cm^2×min] | crystallinity by PXRD [2] | Mean AUC0-inf [3, 6] [ng·h/mL] | Bioavailability (Mean AUC0-inf/IV Mean AUC0-inf) [3, 6] [%] | Tg ([4]; 75% RH) [°C] | Tg ([4]; <5% RH) [°C] | AUC90 [5, 7] | Cmax 90 [5, 7] [µg/mL] | AUC90 [5, 8] | AUC90% of 0 Hr Value [5, 8] [%] | Cmax 90 [5, 8] [µg/mL] | Maximum Flux ([1]; Table 8.1, within 240 minute duration, normalized for membrane area) [µg/cm^2×min] | Maximum Flux ([1]; Table 9.3) [µg/cm^2-min] | Mean AUC0-inf [3] [ng·h/mL] | Bioavailability (Mean AUC0-inf/IV Mean AUC0-inf) [3] [%]
CNC(=O)c1ccc(N2C(=S)N(c3ccc(C#N)c(C(F)(F)F)c3)C(=O)C2(C)C)cc1F [Amorphous enzalutamide, 4-{3-[4-cyano-3-(trifluoromethyl)phenyl]-5,5-dimethyl-4-oxo-2-sulfanylideneimidazolidin-1-yl}-2-fluoro-N-methylbenzamide] | 1.3 | completely amorphous | 132000 | 57.1 | 64.0 | 88.5 | 8,900 min·mcg/ml | 110 | 8,800 min·mcg/ml | 99 | 100 | – | – | – | –
CNC(=O)c1ccc(N2C(=S)N(c3ccc(C#N)c(C(F)(F)F)c3)C(=O)C2(C)C)cc1F [Control 1, 4-{3-[4-cyano-3-(trifluoromethyl)phenyl]-5,5-dimethyl-4-oxo-2-sulfanylideneimidazolidin-1-yl}-2-fluoro-N-methylbenzamide] | – | – | – | – | – | – | – | – | – | – | – | 0.4 | 0.4 | 62600 | 27.1
